Measurements reported in PubChem BioAssay (NCI).
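Results reflect a 48-hour exposure of cells in 96-well plates to compound at five concentrations. The concentration for full growth arrest is given as TGI.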

Assays:
Experiment in all cases: NCI tumour cell line growth inhibition, 48 h
[1] = tested on: 786-0 renal
[2] = tested on: A549 NSCLC
[3] = tested on: ACHN renal
[4] = tested on: CCRF-CEM leukemia
[5] = tested on: COLO 205 colon
[6] = tested on: DMS 114 small cell lung
[7] = tested on: DMS 273 small cell lung
[8] = tested on: EKVX NSCLC
[9] = tested on: HCT-116 colon
[10] = tested on: HCT-15 colon
[11] = tested on: HL-60(TB) leukemia
[12] = tested on: HOP-18 NSCLC
[13] = tested on: HOP-62 NSCLC
[14] = tested on: HT29 colon
[15] = tested on: K-562 leukemia
[16] = tested on: KM12 colon
[17] = tested on: KM20L2 colon
[18] = tested on: LOX IMVI melanoma
[19] = tested on: LXFL 529 NSCLC
[20] = tested on: M14 melanoma
[21] = tested on: M19-MEL melanoma
[22] = tested on: MALME-3M melanoma
[23] = tested on: MOLT-4 leukemia
[24] = tested on: NCI-H226 lung
[25] = tested on: NCI-H23 lung
[26] = tested on: NCI-H460 lung
[27] = tested on: NCI-H522 lung
[28] = tested on: OVCAR-4 ovarian
[29] = tested on: OVCAR-8 ovarian
[30] = tested on: RPMI-8226 leukemia
[31] = tested on: RXF 393 renal
[32] = tested on: SF-268 CNS
[33] = tested on: SF-295 CNS
[34] = tested on: SK-MEL-2 melanoma
[35] = tested on: SK-MEL-28 melanoma
[36] = tested on: SK-MEL-5 melanoma
[37] = tested on: SK-OV-3 ovarian
[38] = tested on: SN12C renal
[39] = tested on: SNB-19 CNS
[40] = tested on: SNB-75 CNS
[41] = tested on: SNB-78 CNS
[42] = tested on: SR leukemia
[43] = tested on: SW-620 colon
[44] = tested on: TK-10 renal
[45] = tested on: U251 CNS
[46] = tested on: UACC-257 melanoma
[47] = tested on: UACC-62 melanoma
[48] = tested on: UO-31 renal
[49] = tested on: XF 498 CNS
[50] = tested on: A498 renal
[51] = tested on: BT-549 breast
[52] = tested on: CAKI-1 renal
[53] = tested on: DLD-1 colon
[54] = tested on: DU-145 prostate
[55] = tested on: HCC-2998 colon
[56] = tested on: HOP-92 NSCLC
[57] = tested on: HS 578T breast
[58] = tested on: IGROV1 ovarian
[59] = tested on: MDA-MB-231 breast
[60] = tested on: MDA-MB-435
[61] = tested on: MDA-N
[62] = tested on: NCI/ADR-RES ovarian
[63] = tested on: OVCAR-3 ovarian
[64] = tested on: OVCAR-5 ovarian
[65] = tested on: PC-3 prostate
[66] = tested on: SF-539 CNS
[67] = tested on: T-47D breast

`Cc1ccc(NC(=O)CSc2nnc(Cc3ccccc3)o2)c(C)c1` showed a TGI [1] greater than 100 µM, a TGI [2] greater than 100 µM and a TGI [3] greater than 100 µM. It also gave a TGI [4] greater than 100 µM, a TGI [5] greater than 100 µM and a TGI [6] greater than 100 µM. It also gave a TGI [7] greater than 100 µM, a TGI [8] greater than 100 µM and a TGI [9] greater than 100 µM. The TGI [10] was greater than 100 µM, the TGI [11] was greater than 100 µM and the TGI [12] was greater than 100 µM. The TGI [13] was greater than 100 µM, the TGI [14] was greater than 100 µM and the TGI [15] was greater than 100 µM. It also gave a TGI [16] greater than 100 µM, a TGI [17] greater than 100 µM and a TGI [18] greater than 100 µM. The TGI [19] was greater than 100 µM, the TGI [20] was greater than 100 µM and the TGI [21] was greater than 100 µM. It also gave a TGI [22] greater than 100 µM, a TGI [23] greater than 100 µM and a TGI [24] greater than 100 µM. The TGI [25] was greater than 100 µM, the TGI [26] was greater than 100 µM and the TGI [27] was greater than 100 µM. The TGI [28] was greater than 100 µM, the TGI [29] was greater than 100 µM and the TGI [30] was greater than 100 µM. The TGI [31] was greater than 100 µM, the TGI [32] was greater than 100 µM and the TGI [33] was greater than 100 µM. For the same molecule, the TGI [34] was greater than 100 µM, the TGI [35] was greater than 100 µM and the TGI [36] was greater than 100 µM. For the same molecule, the TGI [37] was greater than 100 µM, the TGI [38] was greater than 100 µM and the TGI [39] was greater than 100 µM. For the same molecule, the TGI [40] was greater than 100 µM, the TGI [41] was greater than 100 µM and the TGI [42] was greater than 100 µM. For the same molecule, the TGI [43] was greater than 100 µM, the TGI [44] was greater than 100 µM and the TGI [45] was greater than 100 µM. It also gave a TGI [46] greater than 100 µM, a TGI [47] greater than 100 µM and a TGI [48] greater than 100 µM. The TGI [49] was greater than 100 µM.

`O=c1[nH]c2ccccc2nc1CBr` was tested, and the TGI [1] was 9.11 µM, the TGI [50] was greater than 53.1 µM and the TGI [2] was 39.2 µM. For the same molecule, the TGI [3] was 27 µM, the TGI [51] was 21.4 µM and the TGI [52] was 19.6 µM. For the same molecule, the TGI [4] was 1.45 µM, the TGI [5] was 17.6 µM and the TGI [53] was 22.8 µM. It also gave a TGI [7] of 10.4 µM, a TGI [54] of 37.1 µM and a TGI [8] of 9.87 µM. For the same molecule, the TGI [55] was 56.2 µM, the TGI [9] was 21.3 µM and the TGI [10] was 26.2 µM. It also gave a TGI [11] of 0.721 µM, a TGI [12] of 19 µM and a TGI [13] of 45 µM. For the same molecule, the TGI [56] was 11.8 µM, the TGI [57] was 42 µM and the TGI [14] was 22.8 µM. It also gave a TGI [58] of 11.3 µM, a TGI [15] of 9.5 µM and a TGI [16] of 10.1 µM. For the same molecule, the TGI [17] was 32.9 µM, the TGI [18] was 3.24 µM and the TGI [19] was 3.21 µM. For the same molecule, the TGI [20] was 22.8 µM, the TGI [21] was 22.8 µM and the TGI [22] was 8.66 µM. The TGI [59] was 23.3 µM, the TGI [60] was 25.5 µM and the TGI [61] was 24.6 µM. The TGI [23] was 4.35 µM, the TGI [24] was 37.3 µM and the TGI [25] was 29.1 µM. For the same molecule, the TGI [26] was 29 µM, the TGI [27] was 1.49 µM and the TGI [62] was 51.1 µM. The TGI [63] was 4.22 µM, the TGI [28] was 13.4 µM and the TGI [64] was 33.7 µM. It also gave a TGI [29] of 34.7 µM, a TGI [65] of 25.1 µM and a TGI [30] of 9.97 µM. The TGI [31] was 7.72 µM, the TGI [32] was 31.1 µM and the TGI [33] was 43.2 µM. The TGI [66] was 21.4 µM, the TGI [34] was 22.6 µM and the TGI [35] was 25.6 µM. The TGI [36] was 23.2 µM, the TGI [37] was 53.3 µM and the TGI [38] was 24.5 µM. The TGI [39] was 52 µM, the TGI [40] was 34.2 µM and the TGI [41] was 65.6 µM. For the same molecule, the TGI [42] was 2.44 µM, the TGI [43] was 17.5 µM and the TGI [67] was 31.1 µM. The TGI [44] was 20.7 µM, the TGI [45] was 23.8 µM and the TGI [46] was 27.3 µM. For the same molecule, the TGI [47] was 21.3 µM, the TGI [48] was 11.2 µM and the TGI [49] was 3.51 µM.
